According to ChEMBL document CHEMBL4364307, “2-(phenylthio)ethylidene derivatives as anti-Trypanosoma cruzi compounds: Structural design, synthesis and antiparasitic activity” (Eur J Med Chem, 2019):
The source made the active and inactive calls. No cut-off for these calls is given here.

Assays:
[1] = biological target: Cruzipain (Trypanosoma cruzi) (UniProt P25779); experiment: Inhibition of Trypanosoma cruzi cruzain at 100 uM using Z-FR-AMC as substrate preincubated for 10 mins followed by substrate addition and measured for 5 mins by fluorimetric analysis relative to control
Chain of Cruzipain (Trypanosoma cruzi) (P25779 123-467 limits assumed): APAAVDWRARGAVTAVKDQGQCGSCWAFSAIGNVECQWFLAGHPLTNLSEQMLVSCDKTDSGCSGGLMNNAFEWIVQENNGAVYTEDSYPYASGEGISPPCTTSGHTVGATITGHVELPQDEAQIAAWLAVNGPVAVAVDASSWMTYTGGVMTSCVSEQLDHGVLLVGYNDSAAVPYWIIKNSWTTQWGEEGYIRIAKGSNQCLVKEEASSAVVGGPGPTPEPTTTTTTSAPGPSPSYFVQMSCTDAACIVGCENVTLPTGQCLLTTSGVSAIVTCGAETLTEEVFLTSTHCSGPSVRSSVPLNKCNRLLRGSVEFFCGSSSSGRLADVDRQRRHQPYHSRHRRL

Trypanosoma cruzi [2] = experiment: Induction of apoptosis in bloodstream form of Trypanosoma cruzi trypomastigotes at 1.1 mM after 24 hrs by annexin V-FITC/propidium iodide staining based flow cytometry relative to control; type: functional, organism-based
Trypanosoma cruzi [3] = experiment: Antitrypanosomal activity against bloodstream form of Trypanosoma cruzi trypomastigotes after 24 hrs by Neubauer chamber method; type: functional, organism-based
Trypanosoma cruzi [4] = experiment: Antitrypanosomal activity against Trypanosoma cruzi Dm28c epimastigotes after 5 days by Neubauer chamber method; type: functional, organism-based; details: 120 h
[5] = Selectivity index, ratio of maximum non-toxic concentration for Balb/c mouse splenocyte to IC50 for bloodstream form of Trypanosoma cruzi trypomastigotes; type: toxicity; details: mouse splenocytes, read-out: Selectivity Index
Cruzipain = Cruzipain (Trypanosoma cruzi, UniProt P25779); experiment: Inhibition of Trypanosoma cruzi cruzain using Z-FR-AMC as substrate preincubated for 10 mins followed by substrate addition and measured for 5 mins by fluorimetric analysis
Chain of Cruzipain (P25779 whole entry): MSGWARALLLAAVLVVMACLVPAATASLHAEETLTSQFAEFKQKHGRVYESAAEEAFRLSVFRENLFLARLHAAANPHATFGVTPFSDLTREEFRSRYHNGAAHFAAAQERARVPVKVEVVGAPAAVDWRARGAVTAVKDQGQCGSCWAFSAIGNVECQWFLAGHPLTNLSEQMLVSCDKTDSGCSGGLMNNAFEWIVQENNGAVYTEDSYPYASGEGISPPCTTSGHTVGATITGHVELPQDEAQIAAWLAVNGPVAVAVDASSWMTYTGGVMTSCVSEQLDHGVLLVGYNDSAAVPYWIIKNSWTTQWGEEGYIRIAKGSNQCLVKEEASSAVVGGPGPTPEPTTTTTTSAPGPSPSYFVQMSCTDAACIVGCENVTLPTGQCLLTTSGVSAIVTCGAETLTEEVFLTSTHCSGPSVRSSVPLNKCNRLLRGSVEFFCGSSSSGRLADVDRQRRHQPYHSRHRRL

Trypanosoma cruzi [6] = experiment: Induction of apoptosis in bloodstream form of Trypanosoma cruzi trypomastigotes at 0.25 mM after 24 hrs by annexin V-FITC/propidium iodide staining based flow cytometry relative to control; type: functional, organism-based
[7] = Cytotoxicity against Balb/c mouse splenocyte assessed as reduction in cell viability after 24 hrs by [3H]thymidine incorporation based beta scintillation counting analysis; details: mouse splenocytes
Trypanosoma cruzi [8] = experiment: (§1) Antiparasitic activity against bloodstream form of Trypanosoma cruzi Y strain trypomastigotes infected in Balb/c mouse peritoneal macrophage assessed as reduction in number of amastigotes/100 macrophages at 20 uM incubated for 6 hrs followed by replacement of fresh medium measured after 3 days by Giemsa-staining based optical microscopic analysis; type: functional, organism-based
Trypanosoma cruzi [9] = experiment: Antiparasitic activity against bloodstream form of Trypanosoma cruzi Y strain trypomastigotes infected in Balb/c mouse peritoneal macrophage at 20 uM incubated for 2 hrs followed by extracellular parasites wash out and measured after 2 hrs by Giemsa staining-based optical microscopic analysis
Trypanosoma cruzi [10] = experiment: as §1, with “percent” for “number”, “infected” for “amastigotes/100”; type: functional, organism-based
Trypanosoma cruzi [11] = experiment: Antiparasitic activity against bloodstream form of Trypanosoma cruzi Y strain trypomastigotes infected in Balb/c mouse peritoneal macrophage incubated for 6 hrs followed by replacement of fresh medium measured after 3 days by Giemsa-staining based optical microscopic analysis; type: functional, organism-based
Trypanosoma cruzi [12] = experiment: Antitrypanosomal activity against Trypanosoma cruzi Y strain epimastigotes after 15 hrs by hemocytometer based cell counting method; type: functional, organism-based
Trypanosoma cruzi [13] = experiment: Induction of morphological changes in Trypanosoma cruzi bloodstream trypomastigotes assessed as appearance myelin figures in cytoplasm at 3 uM after 24 hrs by TEM analysis; type: functional, organism-based
Trypanosoma cruzi [14] = experiment: Induction of morphological changes in Trypanosoma cruzi bloodstream trypomastigotes assessed as appearance of atypical vacuoles in cytoplasm at 3 uM after 24 hrs by TEM analysis; type: functional, organism-based
Trypanosoma cruzi [15] = experiment: Induction of morphological changes in Trypanosoma cruzi bloodstream trypomastigotes assessed as disorganization of golgi complex at 3 uM after 24 hrs by TEM analysis; type: functional, organism-based
Trypanosoma cruzi [16] = experiment: Induction of morphological changes in Trypanosoma cruzi bloodstream trypomastigotes assessed as appearance of myelin figures in mitochondria at 3 uM after 24 hrs by TEM analysis; type: functional, organism-based

SMILES	inhibition [1]	IC50 (Trypanosoma cruzi [3])	IC50 (Trypanosoma cruzi [4])	selectivity ratio [5]	MNTC at 24 h [7]	further results
Cc1ccc(C)c(SC/C=N/NC(N)=S)c1	87.6%	5.9 µM	6.2 µM	0.7	< 3.9 µM	Activity (Trypanosoma cruzi [2]): Active; IC50 (Cruzipain): 3.3 µM; Activity (Trypanosoma cruzi [6]): Active
Cc1ccccc1SC/C=N/NC(N)=S	13.9%	6.1 µM	15.3 µM	6.9	41.8 µM	
Clc1ccc(-c2csc(N/N=C/CSc3ccccc3)n2)cc1	17.6%	4.1 µM	6.8 µM	> 67.8	> 278 µM	Activity (Trypanosoma cruzi [2]): Active; Activity (Trypanosoma cruzi [8]): Active; inhibition (Trypanosoma cruzi [9]): Active; Activity (Trypanosoma cruzi [10]): Active; Activity (Trypanosoma cruzi [6]): Active; IC50 (Trypanosoma cruzi [11]): 7.88 µM
COc1ccc(-c2csc(N/N=C/CSc3ccccc3)n2)cc1		18.5 µM	62.7 µM	> 15.2	> 281 µM	
O=C(Cn1ccnc1[N+](=O)[O-])NCc1ccccc1 [BENZNIDAZOLE]		6.2 µM		15.5		
NC(=S)N/N=C/CSc1cccc(Cl)c1	75.9%	14.1 µM	5.5 µM	6.8	96.2 µM	IC50 (Cruzipain): 19 µM
Brc1ccc(-c2csc(N/N=C/CSc3ccccc3)n2)cc1	7%	14.3 µM	5.4 µM	> 16.7	> 239 µM	
NC(=S)N/N=C/CSc1ccccc1	42.1%	89 µM	102 µM	0.25		
CC(C)C1S/C(=N/N=C/CSc2ccccc2)NC1=O (stereo not drawn)						IC50 (Trypanosoma cruzi [12]): 0.3 µM
C/C(COc1ccccc1)=N\Nc1nc(-c2ccc(Br)cc2)cs1			49.8 µM			
NC(=S)N/N=C/CSc1cc(Cl)ccc1Cl	37.4%	8.2 µM	6.1 µM	10.4	85 µM	
Clc1ccc(-c2csc(N/N=C/CSc3ccccc3)n2)cc1Cl	62.9%	15.2 µM	56.5 µM	8.3	127 µM	
O=[N+]([O-])c1ccc(-c2csc(N/N=C/CSc3ccccc3)n2)cc1	18.9%	8.4 µM	16 µM	8	67.5 µM	Activity (Trypanosoma cruzi [8]): Active; Activity (Trypanosoma cruzi [10]): Active; IC50 (Trypanosoma cruzi [11]): 19.3 µM
C/C(COc1ccccc1)=N\Nc1nc(-c2cccc([N+](=O)[O-])c2)cs1		3.8 µM	4 µM			
Cc1sc(N/N=C/CSc2ccccc2)nc1-c1ccc(Br)cc1	27%	2.6 µM	4.1 µM	> 95.1	> 247 µM	Activity (Trypanosoma cruzi [13]): Active; Activity (Trypanosoma cruzi [2]): Active; Activity (Trypanosoma cruzi [8]): Active; Activity (Trypanosoma cruzi [14]): Active; Activity (Trypanosoma cruzi [15]): Active; inhibition (Trypanosoma cruzi [9]): Active; Activity (Trypanosoma cruzi [16]): Active; Activity (Trypanosoma cruzi [10]): Active; Activity (Trypanosoma cruzi [6]): Active; IC50 (Trypanosoma cruzi [11]): 10.2 µM
NC(=S)N/N=C/CSc1ccccc1Cl	46%	6.2 µM	47.7 µM	0.6	< 3.8 µM	
COc1ccc(SC/C=N/NC(N)=S)cc1	34.6%	39.7 µM	32.1 µM	0.1	< 3.9 µM	
Cc1ccc(-c2csc(N/N=C/CSc3ccccc3)n2)cc1	11.9%	5.7 µM	9.4 µM	25.8	147 µM	Activity (Trypanosoma cruzi [2]): Active; Activity (Trypanosoma cruzi [8]): Active; Activity (Trypanosoma cruzi [10]): Active; Activity (Trypanosoma cruzi [6]): Active; IC50 (Trypanosoma cruzi [11]): 18.8 µM
NC(=S)N/N=C/CSc1ccc(F)cc1	27.5%	5.7 µM	6.1 µM	3.6	20.5 µM	

More lines, main results first:

inhibition [1]	IC50 (Trypanosoma cruzi [3])	IC50 (Trypanosoma cruzi [4])	SMILES	selectivity ratio [5]	MNTC at 24 h [7]	further results
	3.9 µM	4 µM	C/C(COc1ccccc1)=N\Nc1nc(-c2ccncc2)cs1			
22.9%	41.7 µM		Fc1ccc(-c2csc(N/N=C/CSc3ccccc3)n2)cc1	> 7	> 291 µM	
43.4%	1.8 µM	6.3 µM	Cc1cccc(SC/C=N/NC(N)=S)c1	2.3	< 4.2 µM	Activity (Trypanosoma cruzi [2]): Active; Activity (Trypanosoma cruzi [6]): Active
25.2%	14.1 µM	6.2 µM	NC(=S)N/N=C/CSc1ccc(Cl)cc1	0.3	< 3.8 µM	
16.2%	19.2 µM	8.4 µM	O=[N+]([O-])c1cccc(-c2csc(N/N=C/CSc3ccccc3)n2)c1	7	135 µM	
67.2%	4.1 µM	7.9 µM	Clc1ccc(-c2csc(N/N=C/CSc3ccccc3)n2)c(Cl)c1	30.9	127 µM	Activity (Trypanosoma cruzi [2]): Active; Activity (Trypanosoma cruzi [6]): Active
16.6%	6.6 µM	15.4 µM	NC(=S)N/N=C/CSc1ccc(Br)cc1	0.5	< 3.3 µM	Activity (Trypanosoma cruzi [2]): Active; Activity (Trypanosoma cruzi [6]): Active
31.4%		9.6 µM	Cc1ccc(SC/C=N/NC(N)=S)cc1		4.2 µM	
	5.2 µM	59.4 µM	C(/CSc1ccccc1)=N\Nc1nc(-c2ccccc2)cs1	29.5	154 µM	Activity (Trypanosoma cruzi [2]): Active; Activity (Trypanosoma cruzi [6]): Active
